From patent publication US8729017B2 (priority 2011, dated 2014) come the findings set out here.

Holding throughout (format): cell-based
One experiment deals with T1, GLP-1 receptor (Homo sapiens, UniProt P43220).
T1 construct: expressed in transfected cells; host or cells: HEK293
Kind of experiment: cAMP induction, firefly luciferase reporter assay in HEK293 cells co-transfected with the GLP-1 receptor. On the procedure: (§1) The ability of each peptide to induce cAMP was measured in a firefly luciferase-based reporter assay. […] At the end of the incubation, 100 μL of LucLite luminescence substrate reagent (Perkin Elmer, Wellesley, Mass.) were added to each well. […] In some instances, the in vitro agonist activity at the GIP receptor was also tested.
Background: In a reporter assay the amount or activity of a reporter protein is the signal.

The target in another experiment is T2, glucagon receptor (Homo sapiens, UniProt P47871).
T2 construct: expressed in transfected cells; host or cells: HEK293
T2 sequence (P47871 26-477, species assumed): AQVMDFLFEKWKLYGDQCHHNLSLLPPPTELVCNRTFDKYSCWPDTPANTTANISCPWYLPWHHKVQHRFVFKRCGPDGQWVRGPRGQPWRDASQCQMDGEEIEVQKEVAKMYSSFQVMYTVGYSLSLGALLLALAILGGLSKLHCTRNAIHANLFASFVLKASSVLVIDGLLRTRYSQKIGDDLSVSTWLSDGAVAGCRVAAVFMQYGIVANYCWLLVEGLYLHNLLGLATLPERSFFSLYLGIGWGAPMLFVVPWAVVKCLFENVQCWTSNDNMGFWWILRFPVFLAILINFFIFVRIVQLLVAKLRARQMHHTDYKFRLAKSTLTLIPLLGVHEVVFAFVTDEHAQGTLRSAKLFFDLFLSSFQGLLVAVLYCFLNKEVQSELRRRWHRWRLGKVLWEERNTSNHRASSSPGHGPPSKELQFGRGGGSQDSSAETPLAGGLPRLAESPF
Kind of experiment: cAMP induction, firefly luciferase reporter assay in HEK293 cells co-transfected with the glucagon receptor. The method, then: as §1

In the next experiment the target is T3, GIP receptor (Homo sapiens, UniProt P48546).
T3 construct: expressed in transfected cells; host or cells: HEK293
T3 sequence (P48546 22-466): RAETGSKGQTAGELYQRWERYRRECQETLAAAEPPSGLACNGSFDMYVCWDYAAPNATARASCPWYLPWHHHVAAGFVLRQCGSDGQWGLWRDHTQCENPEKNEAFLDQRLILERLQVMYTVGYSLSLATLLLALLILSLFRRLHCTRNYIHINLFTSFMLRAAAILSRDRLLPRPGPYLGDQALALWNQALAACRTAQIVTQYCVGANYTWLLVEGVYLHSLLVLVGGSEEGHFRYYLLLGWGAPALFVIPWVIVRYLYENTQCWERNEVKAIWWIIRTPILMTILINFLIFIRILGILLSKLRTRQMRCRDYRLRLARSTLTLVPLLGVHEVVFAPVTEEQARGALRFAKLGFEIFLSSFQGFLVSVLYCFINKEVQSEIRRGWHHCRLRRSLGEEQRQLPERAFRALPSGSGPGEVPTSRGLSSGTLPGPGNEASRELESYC
Kind of experiment: in vitro agonist activity at the GIP receptor (cAMP luciferase reporter, HEK293 cells). On the procedure: It is understood that a lower EC50 indicates higher activity or potency at the receptor. […] The ability of each peptide to induce cAMP was measured in a firefly luciferase-based reporter assay. […] At the end of the incubation, 100 μL of LucLite luminescence substrate reagent (Perkin Elmer, Wellesley, Mass.) were added to each well. […] In some instances, the in vitro agonist activity at the GIP receptor was also tested.

[1] abbreviates: HEK293 cells, cAMP-responsive luciferase reporter, 5 hours incubation.
Setting [2] is: in vitro agonist activity, read-out: EC50 (nM) at GIP receptor.

Read-outs that look alike come from different tables or passages of the source. Numbered stars: 1 amine (or outer) side, 2 acyl side, 3 side chain; on linkers, the order of the positions; unused ones are H or OH. Square brackets hold non-standard residues; d marks the D form. Side chains are listed from the residue outwards. Peptide text beside a SMILES is read from it. * marks the point of attachment. γGlu = O=C(O)[C@H](CCC(=O)[*:2])N[*:1]; Palmitoyl = CCCCCCCCCCCCCCCC(=O)*; Aib = CC(C)(N)C(=O)O

T1 sequence (P43220 24-463): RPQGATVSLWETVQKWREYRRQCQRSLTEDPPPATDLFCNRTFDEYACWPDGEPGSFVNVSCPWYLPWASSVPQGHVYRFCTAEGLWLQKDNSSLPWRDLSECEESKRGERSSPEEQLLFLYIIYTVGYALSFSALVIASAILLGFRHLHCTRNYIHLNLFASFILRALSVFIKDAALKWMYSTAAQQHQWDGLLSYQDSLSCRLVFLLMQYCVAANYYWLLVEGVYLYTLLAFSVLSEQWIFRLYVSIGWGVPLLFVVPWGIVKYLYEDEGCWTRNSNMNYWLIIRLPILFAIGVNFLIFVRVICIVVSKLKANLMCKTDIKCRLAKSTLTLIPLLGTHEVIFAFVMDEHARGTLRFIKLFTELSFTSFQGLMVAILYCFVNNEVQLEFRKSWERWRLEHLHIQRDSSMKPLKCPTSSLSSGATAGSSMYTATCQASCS

For `CCCCCCCCCCCCCCCC(=O)N[C@@H](CCC(=O)N[C@@H](CCC(=O)NCCCC[C@H](NC(=O)[C@H](CC(=O)O)NC(=O)[C@H](CO)NC(=O)[C@@H](NC(=O)[C@H](Cc1ccccc1)NC(=O)[C@@H](NC(=O)CNC(=O)[C@H](CCC(N)=O)NC(=O)C(C)(C)NC(=O)[C@@H](N)Cc1c[nH]cn1)[C@@H](C)O)[C@@H](C)O)C(=O)N[C@@H](CO)C(=O)N[C@@H](CCCCN)C(=O)N[C@@H](Cc1ccc(O)cc1)C(=O)N[C@@H](CC(C)C)C(=O)N[C@@H](CC(=O)O)C(=O)NC(C)(C)C(=O)N[C@@H](CCCNC(=N)N)C(=O)N[C@@H](C)C(=O)N[C@@H](C)C(=O)N[C@@H](CCC(N)=O)C(=O)N[C@@H](CC(=O)O)C(=O)N[C@@H](Cc1ccccc1)C(=O)N[C@H](C(=O)N[C@@H](CCC(N)=O)C(=O)N[C@@H](Cc1c[nH]c2ccccc12)C(=O)N[C@@H](CC(C)C)C(=O)N[C@@H](CCSC)C(=O)N[C@@H](CCCCN)C(=O)NCC(=O)N[C@@H](CCCNC(=N)N)C(=O)NCC(=O)O)C(C)C)C(=O)O)C(=O)O` [compound 31] (H-H[Aib]QGTFTSDK([γGlu-γGlu-Palmitoyl])SKYLD[Aib]RAAQDFVQWLMKGRG-OH; N-terminus assumed), the EC50 (in general, the concentration needed to bring the measured effect to its halfway point) on GLP-1 receptor (setting [1]) amounted to 0.007 nM; at glucagon receptor (setting [1]), 0.016 nM; at GIP receptor (setting [2]) it was 2.34 nM.
In the case of `CCCCCCCCCCCCCCCC(=O)N[C@@H](CCC(=O)NCCCC[C@H](NC(=O)[C@H](CC(=O)O)NC(=O)[C@H](CO)NC(=O)[C@@H](NC(=O)[C@H](Cc1ccccc1)NC(=O)[C@@H](NC(=O)CNC(=O)[C@H](CCC(N)=O)NC(=O)[C@@H](C)NC(=O)[C@@H](N)Cc1cnc[nH]1)[C@@H](C)O)[C@@H](C)O)C(=O)N[C@@H](CO)C(=O)N[C@@H](CCCCN)C(=O)N[C@@H](Cc1ccc(O)cc1)C(=O)N[C@@H](CC(C)C)C(=O)N[C@@H](CC(=O)O)C(=O)N[C@@H](CCC(=O)O)C(=O)N[C@@H](CCCNC(=N)N)C(=O)N[C@@H](C)C(=O)N[C@@H](C)C(=O)N[C@@H](CCC(N)=O)C(=O)N[C@@H](CC(=O)O)C(=O)N[C@@H](Cc1ccccc1)C(=O)N[C@H](C(=O)N[C@@H](CCC(N)=O)C(=O)N[C@@H](Cc1c[nH]c2ccccc12)C(=O)N[C@@H](CC(C)C)C(=O)N[C@@H](CC(C)C)C(=O)N[C@@H](CC(=O)O)C(=O)N[C@H](C(N)=O)[C@@H](C)O)C(C)C)C(=O)O` [compound 56], the EC50 on GLP-1 receptor came out at 0.02 nM; on glucagon receptor, 0.006 nM; at GIP receptor, 1.64 nM.
With `CCCCCCCCCCCCCCCC(=O)N[C@@H](CCC(=O)N[C@@H](CCC(=O)NCCCC[C@H](NC(=O)[C@H](CC(=O)O)NC(=O)[C@H](CO)NC(=O)[C@@H](NC(=O)[C@H](Cc1ccccc1)NC(=O)[C@@H](NC(=O)CNC(=O)[C@H](CCC(N)=O)NC(=O)C(C)(C)NC(=O)[C@@H](N)Cc1c[nH]cn1)[C@@H](C)O)[C@@H](C)O)C(=O)N[C@@H](CO)C(=O)N[C@@H](CCCCN)C(=O)N[C@@H](Cc1ccc(O)cc1)C(=O)N[C@@H](CC(C)C)C(=O)N[C@@H](CC(=O)O)C(=O)NC(C)(C)C(=O)N[C@@H](CCCNC(=N)N)C(=O)N[C@@H](C)C(=O)N[C@@H](C)C(=O)N[C@@H](CCC(N)=O)C(=O)N[C@@H](CC(=O)O)C(=O)N[C@@H](Cc1ccccc1)C(=O)N[C@H](C(=O)N[C@@H](CCC(N)=O)C(=O)N[C@@H](Cc1c[nH]c2ccccc12)C(=O)N[C@@H](CC(C)C)C(=O)N[C@@H](CCSC)C(=O)N[C@@H](CCCCN)C(=O)N[C@H](C(=O)N[C@@H](CCCCN)C(=O)N[C@H](CCC(=O)O)C(=O)O)[C@@H](C)O)C(C)C)C(=O)O)C(=O)O` [compound 37] (H-H[Aib]QGTFTSDK([γGlu-γGlu-Palmitoyl])SKYLD[Aib]RAAQDFVQWLMKTK[dE]-OH; N-terminus assumed), the EC50 on GLP-1 receptor (setting [1]) was determined as 0.016 nM; on glucagon receptor (setting [1]), 0.018 nM; at GIP receptor (setting [2]), 3.3 nM.
For `CCCCCCCCCCCCCCCC(=O)N[C@@H](CCC(=O)N[C@@H](CCC(=O)NCCCC[C@H](NC(=O)[C@H](CC(=O)O)NC(=O)[C@H](CO)NC(=O)[C@@H](NC(=O)[C@H](Cc1ccccc1)NC(=O)[C@@H](NC(=O)CNC(=O)[C@H](CCC(N)=O)NC(=O)C(C)(C)NC(=O)[C@@H](N)Cc1c[nH]cn1)[C@@H](C)O)[C@@H](C)O)C(=O)N[C@@H](CO)C(=O)N[C@@H](CCCCN)C(=O)N[C@@H](Cc1ccc(O)cc1)C(=O)N[C@@H](CC(C)C)C(=O)N[C@@H](CC(=O)O)C(=O)NC(C)(C)C(=O)N[C@@H](CCCNC(=N)N)C(=O)N[C@@H](C)C(=O)N[C@@H](C)C(=O)N[C@@H](CCC(N)=O)C(=O)N[C@@H](CC(=O)O)C(=O)N[C@@H](Cc1ccccc1)C(=O)N[C@H](C(=O)N[C@@H](CCC(N)=O)C(=O)N[C@@H](Cc1c[nH]c2ccccc12)C(=O)N[C@@H](CC(C)C)C(=O)N[C@@H](CCCCN)C(=O)N[C@@H](CC(=O)O)C(=O)NCC(=O)N[C@@H](CCCNC(=N)N)C(=O)N1CCC[C@H]1C(N)=O)C(C)C)C(=O)O)C(=O)O` [compound 25] (H-H[Aib]QGTFTSDK([γGlu-γGlu-Palmitoyl])SKYLD[Aib]RAAQDFVQWLKDGRP-NH2), the figures for the EC50 on GLP-1 receptor (setting [1]), on glucagon receptor (setting [1]) and on GIP receptor (setting [2]) were 0.003 nM, 0.035 nM and 2.36 nM, respectively.
`CCCCCCCCCCCCCCCC(=O)N[C@@H](CCC(=O)N[C@@H](CCC(=O)NCCCC[C@H](NC(=O)[C@H](CC(=O)O)NC(=O)[C@H](CO)NC(=O)[C@@H](NC(=O)[C@H](Cc1ccccc1)NC(=O)[C@@H](NC(=O)CNC(=O)[C@H](CCC(N)=O)NC(=O)C(C)(C)NC(=O)[C@@H](N)Cc1c[nH]cn1)[C@@H](C)O)[C@@H](C)O)C(=O)N[C@@H](CO)C(=O)N[C@@H](CCCCN)C(=O)N[C@@H](Cc1ccc(O)cc1)C(=O)N[C@@H](CC(C)C)C(=O)N[C@@H](CC(=O)O)C(=O)NC(C)(C)C(=O)N[C@@H](CCCNC(=N)N)C(=O)N[C@@H](C)C(=O)N[C@@H](C)C(=O)N[C@@H](CCC(N)=O)C(=O)N[C@@H](CC(=O)O)C(=O)N[C@@H](Cc1ccccc1)C(=O)N[C@H](C(=O)N[C@@H](CCC(N)=O)C(=O)N[C@@H](Cc1c[nH]c2ccccc12)C(=O)N[C@@H](CC(C)C)C(=O)N[C@@H](CC(C)C)C(=O)NC(C)(C)C(=O)NCC(=O)N[C@@H](CCCNC(=N)N)C(=O)NCC(N)=O)C(C)C)C(=O)O)C(=O)O` [compound 29] (H-H[Aib]QGTFTSDK([γGlu-γGlu-Palmitoyl])SKYLD[Aib]RAAQDFVQWLL[Aib]GRG-NH2): the results for the EC50 on GLP-1 receptor (setting [1]), at glucagon receptor (setting [1]) and at GIP receptor (setting [2]) were 0.007 nM, 0.014 nM and 1.65 nM, respectively.
For `CCCCCCCCCCCCCCCC(=O)N[C@@H](CCC(=O)NCCCC[C@H](NC(=O)[C@H](CC(=O)O)NC(=O)[C@H](CO)NC(=O)[C@@H](NC(=O)[C@H](Cc1ccccc1)NC(=O)[C@@H](NC(=O)CNC(=O)[C@H](CCC(N)=O)NC(=O)C(C)(C)NC(=O)[C@@H](N)Cc1c[nH]cn1)[C@@H](C)O)[C@@H](C)O)C(=O)N[C@@H](CO)C(=O)N[C@@H](CCCCN)C(=O)N[C@@H](Cc1ccc(O)cc1)C(=O)N[C@@H](CC(C)C)C(=O)N[C@@H](CC(=O)O)C(=O)NC(C)(C)C(=O)N[C@@H](CCCNC(=N)N)C(=O)N[C@@H](C)C(=O)N[C@@H](C)C(=O)N[C@@H](CCC(N)=O)C(=O)N[C@@H](CC(=O)O)C(=O)N[C@@H](Cc1ccccc1)C(=O)N[C@H](C(=O)N[C@@H](CCC(N)=O)C(=O)N[C@@H](Cc1c[nH]c2ccccc12)C(=O)N[C@@H](CC(C)C)C(=O)N[C@@H](CCCCN)C(=O)N[C@@H](CC(=O)O)C(=O)NCC(=O)N[C@@H](CCCNC(=N)N)C(=O)NCC(N)=O)C(C)C)C(=O)O` [compound 36] (H-H[Aib]QGTFTSDK([γGlu-Palmitoyl])SKYLD[Aib]RAAQDFVQWLKDGRG-NH2), the concentration giving a half-maximal response (EC50) on GLP-1 receptor (setting [1]) was 0.003 nM; on glucagon receptor (setting [1]), 0.028 nM; on GIP receptor (setting [2]) it was 0.47 nM.
Turning to `CCCCCCCCCCCCCCCC(=O)N[C@@H](CCC(=O)N[C@@H](CCC(=O)NCCCC[C@H](NC(=O)[C@H](CC(=O)O)NC(=O)[C@H](CO)NC(=O)[C@@H](NC(=O)[C@H](Cc1ccccc1)NC(=O)[C@@H](NC(=O)CNC(=O)[C@H](CCC(N)=O)NC(=O)C(C)(C)NC(=O)[C@@H](N)Cc1c[nH]cn1)[C@@H](C)O)[C@@H](C)O)C(=O)N[C@@H](CO)C(=O)N[C@@H](CCCCN)C(=O)N[C@@H](Cc1ccc(O)cc1)C(=O)N[C@@H](CC(C)C)C(=O)N[C@@H](CC(=O)O)C(=O)NC(C)(C)C(=O)N[C@@H](CCCNC(=N)N)C(=O)N[C@@H](C)C(=O)N[C@@H](C)C(=O)N[C@@H](CCC(N)=O)C(=O)N[C@@H](CC(=O)O)C(=O)N[C@@H](Cc1ccccc1)C(=O)N[C@H](C(=O)N[C@@H](CCC(N)=O)C(=O)N[C@@H](Cc1c[nH]c2ccccc12)C(=O)N[C@@H](CC(C)C)C(=O)N[C@@H](CCCCN)C(=O)N[C@@H](CC(=O)O)C(=O)NCC(=O)N[C@@H](CCCNC(=N)N)C(=O)NCC(N)=O)C(C)C)C(=O)O)C(=O)O` [compound 24] (H-H[Aib]QGTFTSDK([γGlu-γGlu-Palmitoyl])SKYLD[Aib]RAAQDFVQWLKDGRG-NH2; N-terminus assumed), the EC50 came out at 0.004 nM at GLP-1 receptor (setting [1]), 0.021 nM on glucagon receptor (setting [1]) and 1.46 nM at GIP receptor (setting [2]).
